From a melting point compilation (Tetko et al.; mined from patent text by program, amines drawn as free bases though some values may be those of a salt)

Compound	melting point [°C]
Cc1ccccc1Oc1cccc2c1OC(=O)C2N1C(=O)c2ccccc2C1=O (centres undefined)	168 to 170
O=c1ccc(S(=O)(=O)c2cc3ccccc3[nH]2)n[nH]1	248 to 249
CCOC(=O)C1C(=O)N(Cc2ccc(Br)cc2F)C(=O)c2cccn21 (centres undefined)	114 to 115
CCSC(=S)N1Cc2[nH]c3ccccc3c2CC1C(=O)O (centres undefined)	177 to 178
OCCc1ccccc1Nc1ncc2c(n1)-c1ccccc1[C@H](c1ccccc1F)C2	162 to 163
Cc1ccc(-n2c(-c3ccc(S(C)(=O)=O)cc3)nc(O)c(C#N)c2=O)cc1C	> 285
CCCCCCCCCCCCS(=O)(=O)CCOc1ccc(CCC(=O)C(F)(F)F)cc1	55 to 56
CC(C)(O)C#Cc1cc(C(F)(F)F)cc(C(F)(F)F)c1	74.5 to 74.8
Cc1cccc(-c2n[nH]cc2-c2ccc(F)c(-c3cn(CCO)cn3)c2)n1	248
CCc1cc(C(=O)O)ccc1N=C1SCC2(CCCC2)N1C1CCCC1	208 to 209
COCC(C)c1ccc(N2Cc3ccc(OC)cc3C2=O)cc1 (centres undefined)	116 to 118
CCCCOC(=O)C(=O)Nc1nc2ccccc2s1	137 to 138
CCOC(=O)CN=C(c1ccccc1)c1cc(Cl)ccc1N	130 to 135
OCc1cc2ccnc(Cl)c2[nH]1	185 to 187
NC(=O)N(O)CC=Cc1ccccc1Sc1ccc(Cl)cc1	126 to 128
COC(=O)c1ccc2nc(-c3ccc(C(C)(C)C)cc3)[nH]c2c1	152
CC(C)CN1C(=O)C2CC(c3ccc(N)cc3)(C2)C1=O	158 to 160
CCOC(=O)c1c(C(F)(F)F)nc(C(F)(F)F)c(C)c1OCC	72.5 to 74
Cc1cccc(-c2nc(C(C)C)[nH]c2-c2ccc(F)c(-c3ccc(NS(=O)(=O)C4CC4)cc3)c2)n1	119 to 129
CCOC(=O)C[C@H](NC(=O)/C=C/Sc1ccccc1)C(=O)OCC	100 to 102
Cc1[nH]c2cccc3c2c1CC1C3=CC(C(=O)NN)CN1C (centres undefined)	235 to 240
CN(CC(=O)[C@@H](N)Cc1ccccc1)C(=O)N1CCC[C@H]1C(=O)O	174 to 175
O=C(O)c1ccc(F)cc1NC(=O)C(F)(F)F	166 to 168
O=C(O)CCC1c2ccccc2-c2ccccc21	216 to 217
COC(=O)c1c(OC(C)=O)cc(CBr)cc1OC(C)=O	93 to 95

Compound	melting point [°C]
CCc1nc(/C=C/c2cn(-c3ccccc3)nc2OCc2ccc(OCc3nc(-c4ccc(CC(=O)O)cc4)oc3C)c(OC)c2)cs1	123 to 124
c1ccc(C2SCCCS2)cc1	72 to 73
COCCCNCC(=O)Nc1ccc(C(=O)OC)cc1	49 to 50
CCc1[nH]n(C2CCCC2)c2nc(-c3ccnc4ccccc34)nc(=O)c1-2	205 to 206
CS(=O)(=O)Nc1ccc2c(c1)C(=O)C1(CC1)O2	152 to 154
CCOP(=O)(/C=C/c1cn(-c2ccccc2)nc1OCc1ccc(OCc2nc(-c3ccc(C(=O)O)s3)oc2C)c(OC)c1)OCC	165 to 166
O=C(O)c1ccc2oc3c(c(=O)c2c1)CCC3=Cc1ccccn1	325 to 328
CN(c1cccc2cc(C3=NCC(CN4CCS(=O)(=O)CC4)S3)[nH]c12)S(=O)(=O)c1ccccn1 (centres undefined)	188 to 189
CC(=O)OC1COC(Br)C(OC(C)=O)C1OC(C)=O (centres undefined)	92
CSC1C(=O)Nc2c(C(=O)c3ccc(F)cc3)cc(F)cc21 (centres undefined)	171 to 172
CCCn1c(=O)c2[nH]c(/C=C/c3ccc(OC)cc3OC)nc2n(CCC)c1=O	273 to 274
Cc1nc(Nc2ccccc2)sc1-c1nc2ccccc2c(=O)n1-c1ccccc1Cl	228 to 229
NC(=O)c1c(-c2cccc(F)c2)c(Cl)n2c1CNCC2	226 to 228
O=C1CC2CS(=O)(=O)c3ccccc3C2=NN1c1ccc(Cl)cc1 (centres undefined)	168 to 170
c1ccc(-c2[nH]c3ccccc3c2C2CCNCC2)cc1	187 to 188
CCCCC(O)c1nc2c(C(F)(F)F)cccc2c(O)c1C(=O)Nc1nccs1 (centres undefined)	190
Cc1cc(-c2cccc(C#N)c2)c(C(=O)NCCN2CCOCC2)c(C)n1	158 to 161
NCCOc1cccc(CC(Nc2cc(-c3ccc(OCc4ccccc4)cc3)ncn2)C(=O)O)c1 (centres undefined)	154
CCOC(=O)Nc1ccc(C2=NN(c3nnc(C)s3)[C@H](C)Cc3cc4c(cc32)OCO4)cc1C	241 to 244
COC(=O)C(C)(C)CCOc1ccc(C2=NNC(=O)CC2)cc1Cl	109 to 110
CC1(C)CCc2c(N3CCCC3)nc3sc4c(NCc5ccccn5)ncnc4c3c2C1	212 to 213
CCCCN1CC(=O)N2[C@@H](c3ccc(N)cc3)c3[nH]c4ccccc4c3C[C@@H]2C1=O (relative stereo)	192
NC(=O)c1c(F)cccc1[N+](=O)[O-]	161 to 162
O=C1C(=O)c2ccccc2C2=C1SCC(COc1cccnc1)O2 (centres undefined)	153 to 155
O=C(c1ccc(F)cc1)c1c(-c2ccc(OCCN3CCCC3)cc2)sc2c(O)cccc12	138 to 142

Compound	melting point [°C]
O=C(O)CCc1ccc(OCc2ccc(CN(CCc3ccccc3)c3nc(-c4ccccc4)cs3)cc2)cc1	114 to 115
N=C(N)c1ccc(C(=O)N[C@@H](Cc2cc(I)c(O)c(I)c2)C(=O)N2CCC(OCC(=O)O)CC2)cc1	220 to 221
CCc1nc2c(cnn2CC)c(NC2CCOCC2)c1CNC(=O)c1cccc(C(=O)NCc2ccc(F)c(-c3cccc(CN4CCN(CC)CC4)c3)c2)c1	155 to 158
Oc1cc(-c2ccccc2)nc(O)n1	195 to 200
Cc1cccc(C(O)c2cncn2C(c2ccccc2)(c2ccccc2)c2ccccc2)c1C (centres undefined)	203 to 207
O=[N+]([O-])c1ccc(OCCN2CCN(c3nsc4ccccc34)CC2)cc1	115
CCCCOC(=O)N(C)c1cccc(-c2ccnc3c(C#N)cnn23)c1	96 to 97
CC(=O)OC1CCCCC1n1cnc2cc(Cl)c(Cl)cc21 (centres undefined)	145 to 147
CCCCC1OC(=O)c2cc(C#N)ccc21 (centres undefined)	85 to 86
COC(=O)c1cc(OCC(=O)O)cc(C(=O)OC)c1[N+](=O)[O-]	151 to 152
COc1cccc(C(CN2CCN(c3cncc(Cl)n3)CC2)C2(O)CCCCC2)c1 (centres undefined)	157 to 158
CC(F)=C1CCC2C3CC=C4CC(O[Si](C)(C)C(C)(C)C)CCC4(C)C3CCC12C (centres undefined)	128 to 130
CCC1CCn2c(nc(-c3ccncn3)cc2=O)N1 (centres undefined)	226 to 228
NC[C@H]1C=Cc2cc(F)cc(-c3ccccc3Cl)c2O1	145 to 147
Brc1ccc2nc(-c3ccccc3)nn2c1	146
CCCOc1cccc(-c2ccnc(Nc3cc(OC)c(OC)c(OC)c3)n2)c1	107
Cc1ccc2c(N3CCN(C)C3=O)ccnc2c1NC(=O)c1c(Cl)cccc1Cl	> 250
CNC(=NOC)C1=Nc2ccc(Cl)cc2C(c2ccccc2F)=NC1	140 to 142
Cc1cc(C2(C(F)(F)F)CC(c3ccc(F)cc3)=NO2)ccc1NC(=O)c1cccc(N)c1C(=O)NC(C)C (centres undefined)	122 to 124
NCCCC1(C(N)=O)c2ccccc2-c2ccccc21	198 to 200
CCCN(CCC)C(=O)COc1nc(-c2ccccc2)nc(C)c1Br	107 to 108
CCOC(C)=C(C#N)C(=O)Nc1cccc(Cl)c1	166 to 168
CCc1noc(C)c1-c1[nH]c2ccccc2c1C(C)=O	170 to 173
CCCCc1cc2c3n(ccc-2n1)CC(C)=N3	162
O=C1CCN2CCc3ccccc3C2(c2ccc(F)cc2)C1 (centres undefined)	128 to 130

Compound	melting point [°C]
CCCCCCc1c(C(C)C)nc(C(C)C)c(CO)c1-c1ccc(F)cc1	93 to 95
Cc1cccc(C2=C(c3ccc(S(C)(=O)=O)cc3)CN(C)C2=O)c1	163 to 165
Cc1cc(C(=O)O)ccc1OCCNC(=O)C1Cc2ccccc2N1S(=O)(=O)c1ccc(-c2cccc(C(F)(F)F)c2)cc1 (centres undefined)	102 to 108
NS(=O)(=O)c1ccc(-n2nc(C(F)(F)F)cc2-c2nc3cccc(F)c3s2)cc1	251 to 253
CCOP(=O)(OCC)C(c1ccc2cc(O)ccc2c1)P(=S)(OCC)OCC (centres undefined)	85.5 to 86.5
O=C1CCC(c2ccccc2)(c2ccccc2)[C@@H]2CN(C(=O)CC3=CSCSC3)C[C@H]12 (racemic)	211
CCCCOCCOc1ccc(-c2ccc3c(c2)C=C(C(=O)Nc2ccc(C(O)c4ccccn4)c(C)c2)CCN3C(=O)C(F)(F)F)cc1 (centres undefined)	122 to 125
CCC(CC)c1cccc2[nH]c(=O)n(C)c12	130 to 132
CCC(=O)Nc1cccc(NC(=O)C(C)C)c1	174 to 175
COc1cc(OCc2ccccc2)ccc1C(O)c1cc(Cl)ccc1N (centres undefined)	101 to 103
COc1ccc(OC)c2c1COC(C(=O)O)C2 (centres undefined)	164 to 166
CNC(=O)N1CCC(C(c2ccc(F)cc2)N(CCc2ccccc2)C(=O)NC)CC1 (centres undefined)	186 to 188
Cc1cccc(C=NN2C(=O)CN(C(c3ccccc3)c3ccccc3)CC2=O)n1	161 to 163
CCC(=O)OC1C(=O)N(CCNC)c2ccc(C)cc2SC1c1ccc(C)cc1 (centres undefined)	128 to 132
O=C1NCc2cc(C3CC3)sc21	109 to 110
COc1cc(Nc2c(C#N)cnc3cc(-c4cc5ccccc5s4)ccc23)c(Cl)cc1Cl	269 to 270
CNC(=O)N1CC(Oc2ccc(C(F)(F)F)cc2Cl)C1	160 to 161
CC(C)CNC(=O)c1cccc(-c2ccnc3c(C(=O)c4cccs4)cnn23)c1	174 to 177
O=c1[nH]c(=O)n(C2C=CC(CBr)O2)cc1C=CBr (centres undefined)	> 150
N#Cc1cccc(C2=NOC3(C2)OC(=O)c2ccccc23)c1 (centres undefined)	134 to 137
Nc1c([N+](=O)[O-])cnn1-c1c(Cl)cc(Cl)cc1Cl	218 to 220
Cn1nc(-c2ccc(Cl)cc2)c2c1-c1ccccc1C2	176
CC(C)(C)c1ccc(C#N)cc1NC(=O)Nc1cccnc1	194 to 196
CCn1cc(C(=O)O)c(=O)c2cc(F)c(N3CCC(CN)CC3)nc21	203 to 206
